These results are taken from patent US7799915B2, “Anilino-pyrimidine analogs” (Wyeth LLC, priority 2004, dated 2010).

SMILES strings stand for the structures.

The experiment relates to IκBα in Hela cells treated with TNFα. Nature of the experiment: Western Analysis of IκBα. Particulars: Hela cells treated with compounds for 30 min before addition of TNFα (10 μg/ml), harvested after one hour; mouse anti-IκBα antibody. The format is cell-based. As for the experimental part:
Hela cells are plated at 6-well plate for 24 hours and treated with compounds for 30 min before the addition of TNFα (10 μg/ml). After one hour, Hela cells are harvested in MPER reagent (Pierce, Rockford, Ill.) containing 400 mM NaCl. Protein from all samples is quantified by the Bradford method. Cell lysates containing 30 μg of protein are electrophoresed on a 12% SDS-PAGE gel and transferred to a PVDF membrane using a Bio Rad liquid transfer apparatus. The PVDF membrane is incubated in TBST (TBS with 0.1% Tween-20) with 3% milk for 15 minutes before the addition of the first antibody, mouse anti-IκBα (Santa Cruz). After overnight incubation, the PVDF membrane is washed 3 times with TBST and incubated with secondary antibodies coupled with horseradish peroxidase (Transduction Labs) for one hour. The PVDF membrane is then washed 3 times with TBST and protein is detected using an enhanced chemiluminescence detection system (Pierce).
For the molecule `COc1ccc(-c2ccnc(Nc3ccc(S(=O)(=O)NCCN(C)C)c(C(F)(F)F)c3)n2)cc1F` [compound 167], the “result in Western analysis of IκBα” value is reported as “slightly positive result”.
`NS(=O)(=O)c1ccc(Nc2nccc(-c3ccc(/C=C/CO)cc3)n2)cc1` [compound 272]: the “result in Western analysis of IκBα” value was “positive result”.
Next, `NS(=O)(=O)c1ccc(Nc2nccc(-c3ccc(Cl)s3)n2)cc1` [compound 4]: “positive result”; `COc1ccc(-c2ccnc(Nc3ccc(S(=O)(=O)NCCCN(C)C)c(Cl)c3)n2)cc1F` [compound 173]: “positive result”.
Next, `O=S(=O)(NCCCO)c1ccc(Nc2nccc(-c3ccc(C(F)(F)F)cc3)n2)cc1` [compound 68]: “positive result”; `NS(=O)(=O)c1ccc(Nc2nccc(-c3ccc(C#Cc4ccccn4)s3)n2)cc1` [compound 35]: “slightly positive result”.
